Tests used:
[1] = system: mouse endothelial cells (bEnd3); test: bEnd3 endothelial cell proliferation (BrdU incorporation); type: cell-based; settings: apelin 10 ng/ml or VEGF 50 ng/ml; 0.1 ng/ml to 1 μg/ml (FIG. 17)
Description: Similar cellular proliferation assays were performed using mouse endothelial cells (bEnd3) that constitutively express APJ. […] SU1498 was included in proliferation cultures at a 25 μM concentration, and results were assayed using BrdU incorporation.
Proliferation inhibition experiments with the bEnd3 cells also were carried out using FGF (50 ng/ml) or the FGF pathway inhibitor SU5402 (FIG. 19). SU5402 was included in proliferation cultures at a 20 μM concentration, and results were assayed using BrdU incorporation.

VEGF mRNA expression = settings: apelin-soaked bead, frog embryo
Description: Beads were microsurgically implanted in an avascular region, the posterior lateral mesoderm, of stage 24-26 embryos. Embryos were cultured in 0.2× MMR until stage 35-37, at which time they were prepared for whole mount in situ hybridization analysis as described in Example 2. The embryonic vascular system was visualized using an antisense probe directed against transcripts encoding the Xenopus vascular marker, erg (Baltzinger et al., 1999, Dev. Dyn. 216:420-33).

[2] = system: SVEC cells (lymphatic endothelial cell line SVEC4-10); settings: apelin 10 ng/ml, overnight serum starve, 8 hours of treatment
Description: Cell migration assays as described above were performed with SVEC cells. Apelin was provided at a concentration of 10 ng/ml, and VEGF-C was provided at a concentration of 100 ng/ml.

[3] = system: BAE/APJ#2 cells (bovine aortic endothelial cells expressing mouse APJ); test: BAE/APJ#2 endothelial cell proliferation (BrdU incorporation); type: cell-based; settings: 10 ng/ml, 24 hours, after 48 hours serum starvation
Description: SU1498 was included in proliferation cultures at a concentration of 10 ng/ml and results were assayed using BrdU incorporation. After growth factor incubation, BrdU was added to each well at a final concentration of 10 μM for 2 hours, cells were washed, and fixed for BrdU immunocytochemistry.
Cells were fixed in 100% ice cold methanol at 4° C. for 2 hours to overnight. Prior to staining, cells were air dried and rehydrated for 3 minutes with PBS buffer. DNA was denatured at 37° C. with 2 M HCl, and neutralized with 2 washes for 5 minutes in 0.1 M borate buffer (pH 8.5). […] FITC-labeled anti-BrdU antibody (5 μg/ml) in block was added for 1 hour at room temperature. Cells were counterstained with propidium iodide following several washes in PBS buffer. For each experiment, 4 random fields were photographed for determination of percentage BrdU labeling.

[4] = system: lymphatic endothelial cells; test: In vivo lymphatic cell number assay, quail CAM (Prox1 staining); settings: collagen disk with 50 ng apelin or 100 ng VEGF-C on CAM of 7 day quail embryos, 18 hours
Description: All experiments were carried out using chorioallantoic membranes (CAMs) of quail embryos. Quail embryos used for the lymphatic experiments were 7 days old. Collagen purified from rat tails (Bernanke and Markwald, 1982) was polymerized in 2 mm disks at a final concentration of approximately 1.6 mg/ml in standard phosphate buffered saline (PBS). The total volume of the collagen disk was approximately 10 μl. For experimental treatments, the collagen disks were supplemented with either 50 ng of apelin peptide or 100 ng of VEGF-C protein prior to polymerization at 37° C. for 30 minutes. The VEGF-C was a positive control for these experiments. (Recombinant Human VEGF-C (Cys156Ser), R&D Systems, cat # 752-vc). Apelin peptide was synthesized by Sigma-Genosys (>90% purity). […]
The samples were incubated with primary antibody (Prox1, Research Diagnostics, cat # RDI-102PA30, diluted to 2 μg/ml final concentration) for 4 hours at room temperature or overnight at 4° C. […] Both the lymphatic cell number as well as the number of lymphatic branches were determined.
Assays for lymphatic cell number were carried out in areas of the CAM that were close to the location of the collagen disk as described above. Since Prox1 specifically stains lymphatic endothelial cell nuclei, the number of cells in the lymphatic branches was counted directly. […]

Apelin-13
cellular proliferation of endothelial cells [1]: induces the cellular proliferation of endothelial cells
VEGF expression in the vicinity of the bead (VEGF mRNA expression): no upregulation of VEGF expression
lymphatic endothelial cell migration [2]: chemotactic agent for lymphatic endothelial cells
endothelial cell proliferation (BrdU labeling) [3]: promotes endothelial cell proliferation to a similar extent as VEGF
lymphatic cell number (Prox1 positive nuclei) [4]: mitogenic factor for lymphatic endothelial cells

Reference: patent US20060159676A1, “Methods for modulating angiogenesis, lymphangiogenesis, and apoptosis with apelin compositions” (priority 2005, published 2006)
